Source: ChEMBL document CHEMBL5523704, “Exploration of isoxazole analogs: Synthesis, COX inhibition, anticancer screening, 3D multicellular tumor spheroids, and molecular modeling” (Eur J Med Chem, 2024)
≈ marks a conversion by molar mass, not a printed value.

Columns and labels:
[1] = target: T1, Prostaglandin G/H synthase 1 (Bos taurus, UniProt O62664); assay: Inhibition of bovine COX-1 using arachidonic acid as substrate preincubated for 10 mins followed by substrate addition and measured after 5 mins by ELISA method
T1 sequence (O62664 whole entry): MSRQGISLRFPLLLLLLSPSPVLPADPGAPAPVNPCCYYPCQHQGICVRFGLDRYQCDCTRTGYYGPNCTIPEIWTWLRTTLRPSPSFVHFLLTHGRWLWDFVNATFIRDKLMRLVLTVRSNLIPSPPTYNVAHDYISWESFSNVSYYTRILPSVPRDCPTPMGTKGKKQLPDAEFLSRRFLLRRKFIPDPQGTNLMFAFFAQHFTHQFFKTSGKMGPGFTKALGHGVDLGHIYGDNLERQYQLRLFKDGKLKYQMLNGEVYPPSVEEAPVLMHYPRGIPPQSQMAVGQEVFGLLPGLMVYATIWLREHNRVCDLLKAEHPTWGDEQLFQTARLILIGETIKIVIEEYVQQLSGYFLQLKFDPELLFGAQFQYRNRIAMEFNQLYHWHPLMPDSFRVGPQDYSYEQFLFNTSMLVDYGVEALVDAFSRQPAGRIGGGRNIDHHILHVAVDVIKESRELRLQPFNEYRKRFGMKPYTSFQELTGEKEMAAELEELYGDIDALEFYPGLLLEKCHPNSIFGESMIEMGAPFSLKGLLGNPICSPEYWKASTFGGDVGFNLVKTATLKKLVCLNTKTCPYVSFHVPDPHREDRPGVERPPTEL

[2] = Inhibition of human recombinant COX-1 using arachidonic acid as substrate preincubated for 10 mins followed by substrate addition and measured after 5 mins by ELISA method
COLO 205 = assay: Antiproliferative activity against human COLO 205 cells incubated for 72 hrs by MTS assay; assay type: functional, cell-based; details: COLO 205, 72 h
Hep 3B2 [3] = assay: Antiproliferative activity against human Hep3B cells by MTS assay; assay type: functional, cell-based
HeLa [4] = assay: Antiproliferative activity against human HeLa cells by MTS assay; assay type: functional, cell-based
Huh-7 = assay: Antiproliferative activity against human Huh-7 cells incubated for 72 hrs by SRB method; assay type: functional, cell-based; details: Huh-7, 72 h
HCT-116 = assay: Antiproliferative activity against human HCT-116 cells incubated for 72 hrs by SRB method; assay type: functional, cell-based; details: HCT-116, 72 h
Hep 3B2 [5] = assay: Antiproliferative activity against human Hep3B cells; assay type: functional, cell-based
MCF7 [6] = assay: Antiproliferative activity against human MCF7 cells; assay type: functional, cell-based
Caco-2 = assay: Antiproliferative activity against human Caco-2 cells assessed as inhibition of cell growth incubated for 48 hrs by CellTiter 96 Aqueous One Solution Cell Proliferation Assay; assay type: functional, cell-based; details: Caco-2, 48 h
[7] = Antiproliferative activity against human LX2 cells assessed as inhibition of cell growth incubated for 48 hrs by CellTiter 96 Aqueous One Solution Cell Proliferation Assay; assay type: toxicity, cell-based; details: LX-2 cells
[8] = Antiproliferative activity against HEK293T cells assessed as inhibition of cell growth incubated for 48 hrs by CellTiter 96 Aqueous One Solution Cell Proliferation Assay; assay type: toxicity, cell-based, HEK-293T; details: human
Hep 3B2 [9] = assay: cells; details: Homo sapiens, Hep3B, 48 h
Description: Antiproliferative activity against human Hep3B cells assessed as inhibition of cell growth incubated for 48 hrs by CellTiter 96 Aqueous One Solution Cell Proliferation Assay

MCF7 [10] = assay: cells; details: Homo sapiens, MCF7, 48 h
Description: Antiproliferative activity against human MCF7 cells assessed as inhibition of cell growth incubated for 48 hrs by CellTiter 96 Aqueous One Solution Cell Proliferation Assay

HeLa [11] = assay: cells; details: Homo sapiens, 48 h
Description: Antiproliferative activity against human HeLa cells assessed as inhibition of cell growth incubated for 48 hrs by CellTiter 96 Aqueous One Solution Cell Proliferation Assay

HepG2 = assay: cells; details: Homo sapiens, HepG2, 48 h
Description: Antiproliferative activity against human HepG2 cells assessed as inhibition of cell growth incubated for 48 hrs by CellTiter 96 Aqueous One Solution Cell Proliferation Assay

[12] = target: T2, Prostaglandin G/H synthase 1 (Ovis aries, UniProt P05979)
T2 sequence (P05979 whole entry): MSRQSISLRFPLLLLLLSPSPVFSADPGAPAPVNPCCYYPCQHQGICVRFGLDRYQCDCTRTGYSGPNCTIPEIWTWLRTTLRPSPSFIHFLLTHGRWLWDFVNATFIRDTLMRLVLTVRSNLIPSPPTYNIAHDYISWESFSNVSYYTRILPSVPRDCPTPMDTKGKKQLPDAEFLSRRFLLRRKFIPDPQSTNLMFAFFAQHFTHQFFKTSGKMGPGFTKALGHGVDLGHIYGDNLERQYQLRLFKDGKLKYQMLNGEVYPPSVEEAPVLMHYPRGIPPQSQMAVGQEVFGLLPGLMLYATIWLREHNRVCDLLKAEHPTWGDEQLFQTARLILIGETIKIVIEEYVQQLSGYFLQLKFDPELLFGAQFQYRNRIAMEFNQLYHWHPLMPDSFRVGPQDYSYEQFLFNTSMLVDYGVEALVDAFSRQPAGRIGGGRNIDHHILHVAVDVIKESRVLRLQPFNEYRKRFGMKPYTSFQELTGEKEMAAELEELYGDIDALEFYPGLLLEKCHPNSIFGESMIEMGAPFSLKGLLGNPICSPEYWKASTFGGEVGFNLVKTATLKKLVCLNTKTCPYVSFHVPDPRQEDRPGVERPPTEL
Description: Inhibition of ovine COX-1 by EIA method

SMILES: COc1cccc(-c2nc(C(=O)Nc3ccc(C(F)(F)F)cc3)cs2)c1
- IC50 [1]: 0.239 µM
- IC50 [2]: 0.191 µM
- IC50 (COLO 205): 30.8 µM

SMILES: COc1ccc(NC(=O)c2c(-c3ccccc3Cl)noc2C)cc1OC
- IC50 (Hep 3B2 [3]): 24 µg/mL (≈ 64.3 µM)
- IC50 (HeLa [4]): 15.5 µg/mL (≈ 41.5 µM)

SMILES: COc1ccc(-c2nc(C(=O)Nc3cc(OC)c(OC)c(OC)c3)cs2)cc1
- IC50 (Huh-7): 17.5 µM
- IC50 (HCT-116): 14.6 µM

SMILES: Cc1onc(-c2c(F)cccc2Cl)c1C(=O)Nc1ccc(C(C)(C)C)cc1
- IC50 (Hep 3B2 [5]): 2.77 µg/mL (≈ 7.16 µM)
- IC50 (MCF7 [6]): 9.31 µg/mL (≈ 24.1 µM)

SMILES: COc1cccc2c1C(=O)c1c(O)c3c(c(O)c1C2=O)C[C@@](O)(C(=O)CO)C[C@@H]3O[C@H]1C[C@H](N)[C@H](O)[C@H](C)O1 [DOXORUBICIN]
- IC50 (Caco-2): 0.024 µM
- IC50 at 48 h [7]: 0.21 µM
- IC50 at 48 h [8]: 0.038 µM
- IC50 (Hep 3B2 [9]): 0.025 µM
- IC50 (MCF7 [10]): 0.053 µM
- IC50 (HeLa [11]): < 0.01 µM

SMILES: O=c1[nH]cc(F)c(=O)[nH]1 [FLUOROURACIL]
- IC50 (Caco-2): 4.75 µM
- IC50 at 48 h [7]: 0.178 µM
- IC50 at 48 h [8]: 4.07 µM
- IC50 (HepG2): 4.07 µM
- IC50 (Hep 3B2 [9]): 5.11 µM
- IC50 (MCF7 [10]): 6.51 µM
- IC50 (HeLa [11]): 7.79 µM

SMILES: CC(C(=O)O)c1cccc(C(=O)c2ccccc2)c1 (stereo not drawn) [KETOPROFEN]
- IC50 [12]: 0.035 µM
